US7098204B2 (C.N.R.S., priority 1999, dated 2006)

What was measured:
[1] = target: T1, Insulin receptor tyrosine Kinase (Homo sapiens, UniProt P06213); test: insulin receptor tyrosine kinase assay; assay type: biochemical; conditions: 15 μM ATP
T1 construct: insulin receptor tyrosine kinase domain (CIRK-41)
Protocol: Kinases activities were assayed in Buffer A or C (unless otherwise stated), at 30° C., at a final ATP concentration of 15 μM. Blank values were subtracted and activities calculated as pmoles of phosphate incorporated for a 10 min. incubation (usually expressed in % of the maximal activity, i.e. without inhibitors). Controls were performed with appropriate dilutions of Me2SO. In some cases phosphorylation of the substrate was assessed by autoradiography after SDS-PAGE. IC50 values were estimated from the dose-response curves. • CDK1/cyclin B was extracted in homogenisation buffer from M phase starfish (Marthasterias glacialis) oocytes and purified by affinity chromatography on p9^CKShs1-Sepharose beads, from which it was eluted by free p9^CKShs1 as described. The kinase activity was assayed in buffer C, with 1 mg histone H1/ml, in the presence of 15 μM [γ-^32P] ATP (3,000 Ci/mmol; 1 mCi/ml) in a final volume of 30 μl. After 10 min. incubation at 30° C., 25 μl aliquots of supernatant were spotted onto 2.5×3 cm pieces of Whatman P81 phosphocellulose paper, and, 20 sec. later, the filters were washed five times (for at least 5 min. each time) in a solution of 10 ml phosphoric acid/liter of water. The wet filters were counted in the presence of 1 ml ACS (Amersham) scintillation fluid. • GSK-3β was either purified from rabbit muscle or expressed in and purified from insect Sf9 cells. […]

topoisomerase II α = topoisomerase II α (Homo sapiens, UniProt P11388); test: topoisomerase II α assay; assay type: biochemical; conditions: −(x) = no effect at the highest dose tested (in parentheses)
topoisomerase II α, sequence (P11388 whole entry): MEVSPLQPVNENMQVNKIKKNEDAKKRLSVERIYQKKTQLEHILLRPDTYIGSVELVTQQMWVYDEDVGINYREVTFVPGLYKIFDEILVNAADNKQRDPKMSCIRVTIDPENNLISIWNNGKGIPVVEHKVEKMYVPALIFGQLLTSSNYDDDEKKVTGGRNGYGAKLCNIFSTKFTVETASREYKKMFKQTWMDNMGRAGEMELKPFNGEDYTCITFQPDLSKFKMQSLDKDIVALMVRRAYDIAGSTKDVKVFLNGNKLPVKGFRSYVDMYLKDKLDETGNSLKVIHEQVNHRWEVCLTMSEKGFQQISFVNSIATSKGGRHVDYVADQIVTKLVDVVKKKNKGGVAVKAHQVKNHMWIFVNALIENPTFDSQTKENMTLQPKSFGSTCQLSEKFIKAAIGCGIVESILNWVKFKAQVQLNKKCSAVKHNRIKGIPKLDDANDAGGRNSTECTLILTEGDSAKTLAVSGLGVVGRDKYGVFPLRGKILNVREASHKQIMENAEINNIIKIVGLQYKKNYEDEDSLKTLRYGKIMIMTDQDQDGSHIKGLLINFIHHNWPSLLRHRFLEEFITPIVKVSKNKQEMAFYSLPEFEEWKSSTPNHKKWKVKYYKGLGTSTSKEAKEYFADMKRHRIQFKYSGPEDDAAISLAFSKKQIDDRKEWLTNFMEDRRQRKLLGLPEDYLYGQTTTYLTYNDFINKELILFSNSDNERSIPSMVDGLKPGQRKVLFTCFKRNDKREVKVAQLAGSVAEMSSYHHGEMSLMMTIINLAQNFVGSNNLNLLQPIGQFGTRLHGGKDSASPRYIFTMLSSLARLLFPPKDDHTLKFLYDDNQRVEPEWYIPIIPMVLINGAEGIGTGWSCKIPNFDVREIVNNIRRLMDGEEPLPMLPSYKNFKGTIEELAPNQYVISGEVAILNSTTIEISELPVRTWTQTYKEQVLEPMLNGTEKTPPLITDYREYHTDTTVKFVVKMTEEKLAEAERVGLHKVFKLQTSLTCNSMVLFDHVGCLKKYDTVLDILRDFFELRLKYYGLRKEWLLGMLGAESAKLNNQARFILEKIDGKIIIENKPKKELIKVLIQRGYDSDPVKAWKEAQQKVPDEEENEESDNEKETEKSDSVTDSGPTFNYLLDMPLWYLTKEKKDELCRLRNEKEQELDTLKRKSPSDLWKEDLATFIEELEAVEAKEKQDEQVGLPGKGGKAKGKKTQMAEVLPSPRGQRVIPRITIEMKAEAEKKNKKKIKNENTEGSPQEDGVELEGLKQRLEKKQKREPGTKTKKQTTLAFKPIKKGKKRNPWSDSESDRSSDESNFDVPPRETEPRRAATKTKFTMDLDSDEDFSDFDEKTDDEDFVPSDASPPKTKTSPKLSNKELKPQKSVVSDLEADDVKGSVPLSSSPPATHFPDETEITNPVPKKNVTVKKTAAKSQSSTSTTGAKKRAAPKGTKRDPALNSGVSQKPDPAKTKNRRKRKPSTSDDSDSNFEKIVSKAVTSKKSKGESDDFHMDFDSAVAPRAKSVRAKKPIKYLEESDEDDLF
Protocol: Enzyme activities were assayed as described in the Experimental Procedures section, in the presence of increasing HD concentrations. IC50's were calculated from the dose-response curves.−, no effect at the highest dose tested (in parentheses).

[2] = system: 60 human tumor cell lines; test: NCI disease-oriented in vitro screen; assay type: cell-based; conditions: 48 hr exposure, 0.01–100 μM, read-out: average IC50 over 60 human tumor cell lines
Source text: A sulforhodaminine B protein assay was used to estimate the cytotoxicity.

P388 cell line = test: Inhibition of cell proliferation, P388; assay type: cell-based; conditions: Mus musculus, P388; read-out: IC50 on P388 cell line in μM (parentheses)
HT29-18-C1 cells [3] = test: Trypan blue dye exclusion, HT29-18-C1; assay type: cell-based, human
Protocol: HT29-18-C1 cells were synchronised in G1 by serum deprivation. 5% FCS was added at time 0 and cells were simultaneously treated (o) or not (o) exposed to 10 μM HD. During 24 h and thereafter cultured in 5% FCS-containing medium. Cell number was determined every 12 h for a 72 h period using a hemocytometer. The kinetics of growth inhibition are given on FIG. 9A. […] Serum-treated cells (time 0) were exposed to various HD concentrations and counted after 24 h. The results are given on FIG. 9B. The number of non-serum stimulated cells ( ? ) is indicated for comparison. […] Trypan blue dye exclusion indicated little toxicity associated with 10 and 80 μM HD at 24 h (>95% and 90% viability, respectively). This antiproliferative effect of HD appears to be reversible. In fact, cells slowly began to proliferate again after 72 h culture.

HT29-18-C1 cells [4] = test: Flow cytometric cell cycle analysis, HT29-18-C1; assay type: cell-based, human
Protocol: Cell culture and treatments. HT29-18-C1, a subclone of the human colon adenocarcinoma cell line HT29, was cultured in Dulbecco's modified Eagle's medium (Gibco-BRL) supplemented with 10% FCS, 2 mM L-glutamine (Eurobio) and […] gentamycin (Gibco-BRL) at 37° C., 10% CO2. Cells were synchronized by serum deprivation for 48 h. They were then released from growth arrest by the addition of 5% fetal calf serum (FCS). HD, prepared in DMSO, was added immediately to the medium, for 24 h and at final concentrations ranging from 0 to 80 μM. In some experiments HD was added 22 h after serum addition for an additional 24 h. In other experiments HD was added to unsynchronised cells. Cells were then washed and cultured in 5% FCS medium and counted or analysed by FACS at different times.
Cell counts and flow cytometric cell cycle analysis. Cell were counted with a hemocytometer. Cell cycle distribution was analysed by flow cytometry. […] The stained cells were analysed on a FACScan cytofluorimeter using the cellFit Software program (Becton Dickinson Immunocytometry Systems).
The results concerning the cell cycle distribution of HD-treated cells are given on FIG. 10A. […] Cells were then fixed and their cell cycle phase status was determined by FACscan analysis as described in the Experimental Procedures section. […] Cell cycle distribution was analysed every 24 h for a 72 h period. […]

T1 sequence (P06213 1023-1298 limits assumed): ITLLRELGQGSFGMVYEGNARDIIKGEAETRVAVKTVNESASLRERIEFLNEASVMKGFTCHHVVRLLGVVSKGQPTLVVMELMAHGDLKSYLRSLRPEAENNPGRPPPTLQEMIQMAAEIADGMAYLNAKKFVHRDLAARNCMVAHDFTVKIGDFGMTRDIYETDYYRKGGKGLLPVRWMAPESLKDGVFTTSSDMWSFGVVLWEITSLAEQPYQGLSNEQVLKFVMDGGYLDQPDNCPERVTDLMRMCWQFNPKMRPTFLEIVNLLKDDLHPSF

`NC1=NC(=O)C(=C2CCNC(=O)c3[nH]c(Br)cc32)N1` [hymenialdisine, 4-(2-amino-4-oxo-2-imidazolin-5-ylidene)-2-bromo-4,5,6,7-tetrahydropyrrolo (2,3-c) azepine-8-one] showed an IC50 [1] of 75 µM, an IC50 (topoisomerase II α) greater than 10 µM and an IC50 [2] of 15.1 µM. For the same compound, the IC50 (P388 cell line) was 9.9 µM, the “viability (trypan blue)” value (HT29-18-C1 cells [3]; 10 μM HD at 24 h) was greater than 95% and the “viability (trypan blue)” value (HT29-18-C1 cells [3]; 80 μM HD at 24 h) was 90%. For the same compound, the cell cycle distribution (HT29-18-C1 cells [4]; 10 μM HD added 22 hr after serum, analysed 14 h later) was “accumulation of cells in G2/M” and the cell cycle distribution (HT29-18-C1 cells [4]; HD added with serum at time 0, 24 h) was “accumulation of cells in S phase”.
